Values quoted from earlier work, collected in paper PMC2796837 (Journal of biological inorganic chemistry : JBIC : a …, 2008).
Like-named read-outs stand apart in the source and are kept apart here.

Columns and labels:
[1] = I = 1.0 M and 25 °C
[2] = I = 1.0 M KCl, 25°C
[3] = I = 1.0 M KCl, 25°C; remark: listed apart in the source
[4] = I = 1.0 M KCl, 25°C; remark: listed apart in the source
[5] = I = 1.0 M KCl, 25°C; remark: listed apart in the source
[6] = I = 1.0 M KCl, 25°C; remark: listed apart in the source
[7] = I = 1.0 M KCl, 25°C; remark: listed apart in the source
[8] = I = 1.0 M KCl, 25°C; remark: listed apart in the source
[9] = I = 1.0 M KCl, 25°C; remark: listed apart in the source
[10] = I = 1.0 M KCl, 25°C; remark: listed apart in the source
[11] = I = 1.0 M KCl, 25°C; remark: listed apart in the source
[12] = I = 1.0 M KCl, 25°C; remark: listed apart in the source
[13] = Ce^3+ complex

CN1CCNCC1 [N-methylpiperazine]
log K1^H [1]: 4.83

O=C([O-])CN1CCN(CC(=O)[O-])CCN(C(CO)C(O)CO)CCN(CC(=O)[O-])CC1.[Gd+3] (centres unmarked) [GdDO3A-butrol]
LD50: 23 mmolkg^−1

O=C(O)CN1CCN(CC(=O)O)CCN(CC(=O)O)CCN(CC(=O)O)CC1 [DOTA]
log KCuL [2]: 22.72
log KZnL [3]: 18.17
log KML, Dy^3+ [4]: 24.8
log KML, Nd^3+ [5]: 23.0
log KMgL [6]: 11.15
log KML, Yb^3+ [7]: 25.0
log K1^H [8]: 12.60
log K2^H [8]: 9.70
log K3^H [8]: 4.50
log K4^H [8]: 4.14
log K5^H [8]: 2.32
log KML, Lu^3+ [9]: 25.4
log KML, Eu^3+ [10]: 23.5
log KCaL [11]: 16.37
log KML, Ce^3+ [12]: 23.4
k1 (proton assisted dissociation rate constant) [13]: 0.0008 M⁻¹ s⁻¹

CC(O)CN1CCN(CC(=O)[O-])CCN(CC(=O)[O-])CCN(CC(=O)[O-])CC1.[Gd+3] (centres unmarked) [GdHP-DO3A]
LD50: 12 mmolkg^−1

C1CNCCN1 [piperazine]
log K1^H [1]: 6.04
